In ChEMBL document CHEMBL4184281, “Pharmacology and in vivo efficacy of pyridine-pyrimidine amides that inhibit microtubule polymerization” (Bioorg Med Chem Lett, 2018):
Calls of active or inactive are those of the source. The calls are words filed in the database; no cut-off is given here.

Tests used:
[1] = Toxicity in mouse; format: organism-based; conditions: in vivo
SNU-16 [2] = assay: Antitumor activity against human SNU16 cells xenografted in nude BALB/c mouse assessed as tumor growth inhibition relative to control; format: functional
[3] = Tmax in CD-1 mouse administered as single po dose by mass spectrometry; format: ADME, organism-based; conditions: in vivo
[4] = Toxicity in mouse administered as single po dose; format: organism-based; conditions: in vivo
A2780 [5] = assay: Antitumor activity against human A2780 cells xenografted in nude BALB/c mouse assessed as tumor growth inhibition at 20 mg/kg, po qd measured up to 12 days post dose; format: functional, organism-based
Mus musculus [6] = assay: Toxicity in nude BALB/c mouse xenografted with human A2780 cells assessed as change in body weight at 20 mg/kg, po qd measured up to 12 days post dose; format: organism-based; conditions: in vivo, 288 h
A2780 [7] = assay: Antitumor activity against human A2780 cells xenografted in nude BALB/c mouse assessed as tumor growth inhibition at 15 mg/kg, po administered every other day measured up to 12 days post dose; format: functional, organism-based
Mus musculus [8] = assay: Toxicity in nude BALB/c mouse xenografted with human A2780 cells assessed as change in body weight at 15 mg/kg, po administered every other day measured up to 12 days post dose; format: organism-based; conditions: in vivo, 288 h
[9] = Unbound fraction in plasma (unknown origin); format: ADME, cell-free
[10] = Protein binding in plasma (unknown origin); format: ADME, cell-free; conditions: read-out: PPB (converted)
[11] = Drug recovery in plasma (unknown origin); format: ADME, cell-free
[12] = Stability in human plasma assessed as parent compound remaining after 75 mins relative to initial time; format: ADME, cell-free; conditions: read-out: Stability
[13] = Stability in human plasma assessed as parent compound remaining after 2 hrs relative to initial time; format: ADME, cell-free; conditions: read-out: Stability
[14] = Stability in human plasma assessed as parent compound remaining after 4 hrs relative to initial time; format: ADME, cell-free; conditions: read-out: Stability
[15] = Stability in human plasma assessed as parent compound remaining after 8 hrs relative to initial time; format: ADME, cell-free; conditions: read-out: Stability
[16] = Stability in human plasma assessed as parent compound remaining after 24 hrs relative to initial time; format: ADME, cell-free; conditions: read-out: Stability
[17] = Half life in mouse liver microsomes; format: ADME, microsome
[18] = Half life in rat liver microsomes; format: ADME, microsome
[19] = Half life in dog liver microsomes; format: ADME, Canis lupus familiaris, microsome
[20] = Half life in human liver microsomes; format: ADME, microsome
Cytochrome P450 1A2 = target: T1, Cytochrome P450 1A2 (Homo sapiens, UniProt P05177); assay: Inhibition of CYP1A2 (unknown origin); format: ADME
T1 sequence (P05177 whole entry): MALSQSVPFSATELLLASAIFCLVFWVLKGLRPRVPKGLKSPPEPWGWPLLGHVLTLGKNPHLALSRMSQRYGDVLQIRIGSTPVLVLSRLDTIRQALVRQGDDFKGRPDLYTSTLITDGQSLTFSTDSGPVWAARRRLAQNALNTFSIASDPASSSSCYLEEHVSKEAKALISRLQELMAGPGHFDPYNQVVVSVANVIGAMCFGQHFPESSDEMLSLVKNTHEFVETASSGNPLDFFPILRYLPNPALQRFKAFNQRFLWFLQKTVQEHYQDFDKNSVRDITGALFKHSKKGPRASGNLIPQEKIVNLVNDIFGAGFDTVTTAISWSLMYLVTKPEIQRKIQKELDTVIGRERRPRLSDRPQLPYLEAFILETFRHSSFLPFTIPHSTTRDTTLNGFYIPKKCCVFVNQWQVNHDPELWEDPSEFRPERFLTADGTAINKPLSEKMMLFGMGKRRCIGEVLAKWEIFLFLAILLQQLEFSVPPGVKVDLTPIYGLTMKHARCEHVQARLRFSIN

Cytochrome P450 2C9 = Cytochrome P450 2C9 (Homo sapiens, UniProt P11712); assay: Inhibition of CYP2C9 (unknown origin); format: ADME
Cytochrome P450 2C9, sequence (P11712 whole entry): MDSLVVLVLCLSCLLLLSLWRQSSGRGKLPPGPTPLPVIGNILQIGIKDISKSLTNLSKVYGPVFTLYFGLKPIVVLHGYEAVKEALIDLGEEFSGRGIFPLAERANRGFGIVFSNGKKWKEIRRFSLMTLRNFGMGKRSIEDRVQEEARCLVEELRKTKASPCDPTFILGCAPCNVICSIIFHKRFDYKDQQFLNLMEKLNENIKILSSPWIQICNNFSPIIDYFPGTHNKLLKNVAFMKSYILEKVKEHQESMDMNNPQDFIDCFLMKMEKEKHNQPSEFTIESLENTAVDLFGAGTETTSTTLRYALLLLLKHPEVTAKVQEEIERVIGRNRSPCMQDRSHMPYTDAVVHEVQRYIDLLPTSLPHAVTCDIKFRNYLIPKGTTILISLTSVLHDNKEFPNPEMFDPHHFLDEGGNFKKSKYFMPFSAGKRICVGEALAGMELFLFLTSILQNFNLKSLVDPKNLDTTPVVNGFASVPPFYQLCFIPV

Cytochrome P450 2C19 = Cytochrome P450 2C19 (Homo sapiens, UniProt P33261); assay: Inhibition of CYP2C19 (unknown origin); format: ADME
Cytochrome P450 2C19, sequence (P33261 whole entry): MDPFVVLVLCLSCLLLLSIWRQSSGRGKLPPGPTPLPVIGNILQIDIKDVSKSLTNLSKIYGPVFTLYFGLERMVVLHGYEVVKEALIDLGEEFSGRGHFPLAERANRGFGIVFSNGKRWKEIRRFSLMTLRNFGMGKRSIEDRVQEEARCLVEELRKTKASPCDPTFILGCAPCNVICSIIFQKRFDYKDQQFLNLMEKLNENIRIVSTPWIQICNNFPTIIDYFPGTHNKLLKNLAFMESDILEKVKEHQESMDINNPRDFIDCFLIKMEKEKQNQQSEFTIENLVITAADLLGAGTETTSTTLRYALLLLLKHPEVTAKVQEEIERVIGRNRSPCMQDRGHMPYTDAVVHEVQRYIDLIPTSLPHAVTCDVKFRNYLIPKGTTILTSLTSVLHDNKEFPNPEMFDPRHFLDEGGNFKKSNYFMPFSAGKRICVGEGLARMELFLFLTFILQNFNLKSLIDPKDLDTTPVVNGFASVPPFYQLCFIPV

Cytochrome P450 2D6 = Cytochrome P450 2D6 (Homo sapiens, UniProt P10635); assay: Inhibition of CYP2D6 (unknown origin); format: ADME
Cytochrome P450 2D6, sequence (P10635 whole entry): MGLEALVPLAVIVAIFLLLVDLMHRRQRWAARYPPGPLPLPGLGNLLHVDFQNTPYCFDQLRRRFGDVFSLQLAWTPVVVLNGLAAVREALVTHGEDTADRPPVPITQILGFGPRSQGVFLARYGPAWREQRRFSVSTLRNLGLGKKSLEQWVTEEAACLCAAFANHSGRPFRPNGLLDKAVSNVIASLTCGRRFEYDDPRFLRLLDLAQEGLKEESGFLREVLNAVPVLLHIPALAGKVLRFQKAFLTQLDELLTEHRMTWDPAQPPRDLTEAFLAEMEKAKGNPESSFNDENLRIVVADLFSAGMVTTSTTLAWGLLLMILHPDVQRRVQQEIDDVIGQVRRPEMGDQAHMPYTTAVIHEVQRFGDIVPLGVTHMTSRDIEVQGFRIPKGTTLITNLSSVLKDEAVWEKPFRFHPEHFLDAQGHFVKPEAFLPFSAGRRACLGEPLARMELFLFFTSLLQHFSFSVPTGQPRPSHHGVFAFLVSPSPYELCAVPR

Cytochrome P450 3A4 = Cytochrome P450 3A4 (Homo sapiens, UniProt P08684); assay: Inhibition of CYP3A4 (unknown origin); format: ADME
Cytochrome P450 3A4, sequence (P08684 whole entry): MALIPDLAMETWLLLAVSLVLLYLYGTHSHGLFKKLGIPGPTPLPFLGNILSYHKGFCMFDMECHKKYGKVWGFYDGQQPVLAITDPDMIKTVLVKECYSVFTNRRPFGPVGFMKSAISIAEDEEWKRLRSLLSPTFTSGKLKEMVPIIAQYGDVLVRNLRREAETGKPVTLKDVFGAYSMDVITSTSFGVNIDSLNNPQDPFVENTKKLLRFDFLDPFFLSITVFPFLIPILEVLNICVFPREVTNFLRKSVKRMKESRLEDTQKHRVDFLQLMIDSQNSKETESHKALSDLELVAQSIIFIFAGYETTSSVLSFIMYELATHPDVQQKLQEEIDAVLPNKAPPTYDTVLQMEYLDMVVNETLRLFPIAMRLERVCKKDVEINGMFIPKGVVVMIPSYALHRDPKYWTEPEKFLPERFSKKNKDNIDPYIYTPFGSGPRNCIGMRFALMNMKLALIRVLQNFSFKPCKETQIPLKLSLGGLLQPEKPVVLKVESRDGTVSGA

[21] = Efflux ratio of apparent intrinsic permeability in human Caco2 cells after 120 mins by mass spectrometry; format: ADME, cell-based; conditions: Caco-2
SNU-16 [22] = assay: Antitumor activity against human SNU16 cells harboring luciferase orthotopically implanted in gastric mucosa of Balb/c nude mouse assessed as tumor growth inhibition at 20 mg/kg, po qd administered for 5 days per week for 3 weeks starting from 1 week post tumor implantation by luminescence imaging method; format: functional, organism-based
MFE-296 [23] = assay: Antitumor activity against human MFE296 cells xenografted in nude BALB/c mouse assessed as tumor growth inhibition at 15 mg/kg, po qd administered via gavage for 10 days; format: functional, organism-based
Mus musculus [24] = assay: Toxicity in nude BALB/c mouse xenografted with human MFE296 cells assessed as body weight loss at 15 mg/kg, po qd administered via gavage for 10 days measured after 6 days; format: organism-based; conditions: in vivo, 144 h
MFE-296 [25] = assay: Antitumor activity against human MFE296 cells xenografted in nude BALB/c mouse assessed as tumor growth inhibition at 3.75 to 7.5 mg/kg, po qd administered via gavage for 10 days relative to control; format: functional
Mus musculus [26] = assay: Toxicity in nude BALB/c mouse xenografted with human MFE296 cells assessed as body weight loss at 3.75 to 7.5 mg/kg, po qd administered via gavage for 10 days; format: organism-based; conditions: in vivo, 240 h
Hs-578T [27] = assay: Antiproliferative activity against human Hs 578T cells up to 1000 nM after 72 hrs by ATPlite assay; format: functional, cell-based
BT-549 [28] = assay: Antiproliferative activity against human BT549 cells up to 1000 nM after 72 hrs by ATPlite assay; format: functional, cell-based
MDA-MB-436 [29] = assay: Antiproliferative activity against human MDA-MB-436 cells up to 1000 nM after 72 hrs by ATPlite assay; format: functional, cell-based
Hs-578T [30] = assay: Antiproliferative activity against paclitaxel-resistant human Hs 578T cells 20B clone up to 1000 nM after 72 hrs by ATPlite assay; format: functional, cell-based
Hs-578T [31] = assay: Antiproliferative activity against paclitaxel-resistant human Hs 578T cells 10C clone up to 1000 nM after 72 hrs by ATPlite assay; format: functional, cell-based
BT-549 [32] = assay: Antiproliferative activity against paclitaxel-resistant human BT549 cells 10A clone up to 1000 nM after 72 hrs by ATPlite assay; format: functional, cell-based
MDA-MB-436 [33] = assay: Antiproliferative activity against paclitaxel-resistant human MDA-MB-436 cells 20A clone up to 1000 nM after 72 hrs by ATPlite assay; format: functional, cell-based
MDA-MB-436 [34] = assay: Antiproliferative activity against paclitaxel-resistant human MDA-MB-436 cells 20B clone up to 1000 nM after 72 hrs by ATPlite assay; format: functional, cell-based
Breast carcinoma cell [35] = assay: Antitumor activity against chemo-refractory disease patient-derived breast cancer cells xenografted in NOD/SCID mouse assessed as tumor growth inhibition at 10 mg/kg, po qd administered via gavage for 15 days; format: functional, organism-based; conditions: Homo sapiens
Breast carcinoma cell [36] = assay: Antitumor activity against chemo-refractory disease patient-derived breast cancer cells xenografted in NOD/SCID mouse assessed as tumor regression at 10 mg/kg, po qd administered via gavage for 60 days; format: functional, organism-based; conditions: Homo sapiens
Mus musculus [37] = assay: Toxicity in NOD/SCID mouse xenografted with chemo-refractory disease patient-derived breast cancer cells at 10 mg/kg, po qd administered via gavage for 60 days; format: organism-based; conditions: in vivo, 1440 h
in vitro [38] = conditions: human, Caco-2
Description: Apparent intrinsic permeability in human Caco2 cells from apical to basolateral side after 120 mins by mass spectrometry

in vitro [39] = conditions: human, Caco-2; remark: listed apart in the source
Description: Apparent intrinsic permeability in human Caco2 cells from basolateral to apical side after 120 mins by mass spectrometry

Breast carcinoma cell [40] = assay: Antitumor activity against chemo-refractory disease patient-derived breast cancer cells xenografted in NOD/SCID mouse assessed as tumor growth inhibition at 20 mg/kg, iv administered weekly for 15 days; format: functional, organism-based; conditions: Homo sapiens

Structure (SMILES): Cc1ncc(C(=O)Nc2ccc(-c3cccc(C4CC4)c3)cn2)cn1
- MTD [1]: ≤ 6 mg/kg
- TGI (SNU-16 [2]): 73%
- Tmax [3]: ≤ 0.25 h

Structure (SMILES): Cc1ncc(C(=O)Nc2ccc(-c3cccc(S(=O)(=O)C4CC4)c3)cn2)cn1
- MTD [1]: ≤ 6 mg/kg
- TGI (SNU-16 [2]): 109%
- MTD [4]: ≤ 20 mg/kg
- TGI (A2780 [5]): Active
- Activity (Mus musculus [6]): Toxic
- TGI (A2780 [7]): Active
- Activity (Mus musculus [8]): Non-Toxic
- Tmax [3]: ≤ 0.25 h
- fraction unbound [9]: 0.022
- fraction unbound [10]: 0.022
- Drug recovery [11]: 87.2%
- remaining at 1.25 h [12]: 93%
- remaining at 2 h [13]: 111%
- remaining at 4 h [14]: 103%
- remaining at 8 h [15]: 102%
- remaining at 24 h [16]: 115%
- half-life [17]: 1.12 h
- half-life [18]: 1.33 h
- half-life [19]: 0.832 h
- half-life [20]: 2.41 h
- IC50 (Cytochrome P450 1A2): > 30 µM
- IC50 (Cytochrome P450 2C9): > 30 µM
- IC50 (Cytochrome P450 2C19): > 30 µM
- IC50 (Cytochrome P450 2D6): > 30 µM
- IC50 (Cytochrome P450 3A4): > 30 µM
- efflux ratio at 2 h [21]: 1.02
- TGI (SNU-16 [22]): Active
- TGI (MFE-296 [23]): Active
- Activity (Mus musculus [24]): Toxic
- TGI (MFE-296 [25]): >85%
- Activity (Mus musculus [26]): Non-Toxic
- Activity (Hs-578T [27]): Active
- Activity (BT-549 [28]): Active
- Activity (MDA-MB-436 [29]): Active
- Activity (Hs-578T [30]): Active
- Activity (Hs-578T [31]): Active
- Activity (BT-549 [32]): Active
- Activity (MDA-MB-436 [33]): Active
- Activity (MDA-MB-436 [34]): Active
- TGI (Breast carcinoma cell [35]): Active
- Activity (Breast carcinoma cell [36]): Active
- Activity (Mus musculus [37]): Non-Toxic
- Papp A→B at 2 h (in vitro [38]): 257 nm/s
- Papp B→A at 2 h (in vitro [39]): 261 nm/s

Structure (SMILES): CC(=O)O[C@H]1C(=O)[C@@]2(C)[C@H]([C@H](OC(=O)c3ccccc3)[C@]3(O)C[C@H](OC(=O)[C@H](O)[C@@H](NC(=O)c4ccccc4)c4ccccc4)C(C)=C1C3(C)C)[C@]1(OC(C)=O)CO[C@@H]1C[C@@H]2O
- Activity (Hs-578T [27]): Active
- Activity (BT-549 [28]): Active
- Activity (MDA-MB-436 [29]): Active
- Activity (Hs-578T [30]): inactive
- Activity (Hs-578T [31]): inactive
- Activity (BT-549 [32]): inactive
- Activity (MDA-MB-436 [33]): inactive
- Activity (MDA-MB-436 [34]): inactive
- TGI (Breast carcinoma cell [40]): inactive

Structure (SMILES): CC(C)[N+](C)(CCOC(=O)C1c2ccccc2Oc2ccccc21)C(C)C [PROPANTHELINE]
- remaining at 1.25 h [12]: 13.9%
- remaining at 2 h [13]: 5.16%
- remaining at 4 h [14]: 0.34%

Structure (SMILES): COC(=O)c1ccccc1-c1c2ccc(=N)cc-2oc2cc(N)ccc12.Cl [RHODAMINE123]
- efflux ratio at 2 h [21]: 11.7
- Papp A→B at 2 h (in vitro [38]): 6.1 nm/s
- Papp B→A at 2 h (in vitro [39]): 71.7 nm/s

Structure (SMILES): CC(C)NCC(O)COc1cccc2ccccc12 (stereo not drawn) [PROPRANOLOL]
- efflux ratio at 2 h [21]: 0.99
- Papp A→B at 2 h (in vitro [38]): 212 nm/s
- Papp B→A at 2 h (in vitro [39]): 211 nm/s

Structure (SMILES): Cc1ccc(C(=O)Nc2ccc(-c3cccc(C4COC4)c3)cn2)cn1
- MTD [1]: ≤ 6 mg/kg
- TGI (SNU-16 [2]): 69%
- Tmax [3]: ≤ 0.25 h
